Data: article PMC10818931, “In Vitro Evaluation of Drug–Drug Interaction Potential of Epetraborole, a Novel Bacterial Leucyl-tRNA Synthetase Inhibitor” (Pharmaceuticals, 2024)
Values after ≈ are worked out from the molar mass of the structure shown. Where two headings read alike, the source gives them in different places.

Tests used:
BCRP [1] = target: T1, BCRP (Homo sapiens, UniProt Q9UNQ0); assay: Substrate potential for BCRP, bidirectional permeability in BCRP-MDCK; assay type: in vitro ADME; conditions: for Concentration in the receiver compartment: 5 µM, BCRP-MDCK and MDCK cells, A to B and B to A, Papp and efflux ratio could not be calculated; for as a Substrate: BCRP
T1 construct: host or cells: MDCK (BCRP-MDCK)
T1 sequence (Q9UNQ0 1-655): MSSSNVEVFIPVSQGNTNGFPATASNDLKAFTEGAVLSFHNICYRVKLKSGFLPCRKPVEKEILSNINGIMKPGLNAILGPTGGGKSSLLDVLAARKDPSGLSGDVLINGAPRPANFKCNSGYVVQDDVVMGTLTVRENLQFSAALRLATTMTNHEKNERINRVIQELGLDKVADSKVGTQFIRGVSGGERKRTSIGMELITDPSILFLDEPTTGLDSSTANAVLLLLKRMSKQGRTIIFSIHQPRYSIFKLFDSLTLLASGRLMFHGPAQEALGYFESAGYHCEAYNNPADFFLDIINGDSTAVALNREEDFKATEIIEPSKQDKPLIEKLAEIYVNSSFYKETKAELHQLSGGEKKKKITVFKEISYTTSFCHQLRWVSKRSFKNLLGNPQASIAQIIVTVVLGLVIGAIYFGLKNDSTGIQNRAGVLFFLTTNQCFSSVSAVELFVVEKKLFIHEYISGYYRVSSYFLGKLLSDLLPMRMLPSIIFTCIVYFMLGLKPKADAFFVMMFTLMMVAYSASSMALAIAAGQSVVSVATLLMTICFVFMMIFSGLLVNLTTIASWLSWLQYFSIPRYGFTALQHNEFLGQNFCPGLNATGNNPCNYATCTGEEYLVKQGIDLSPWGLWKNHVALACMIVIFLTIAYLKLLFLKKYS

BCRP [2] = target: T1, BCRP; assay: Inhibition of BCRP-mediated efflux transport in BCRP-MDCK cells; assay type: in vitro ADME
Procedure: A preincubation with EBO or known inhibitor was performed on both sides to preload the cells. After 30 min, the preincubation solution was aspirated. Aliquots of fresh dosing solution with or without EBO or known inhibitor (0.55 mL for AP-to-BL, 1.55 mL for BL-to-AP) were added to the donor compartment, and HBSSg_7.4 with or without EBO or known inhibitor (1.5 mL for AP-to-BL, 0.5 mL for BL-to-AP) were added to the receiver compartment. Receiver samples (200 µL) and donor samples (50 µL) were taken at preselected time points.
Cell monolayer integrity was examined using lucifer yellow (excitation 450 nm and emission 538 nm). The concentrations of the probe substrate in the donor and receiver samples, as well as EBO in dosing solutions, were determined by LC-MS/MS.

MATE1 = target: T2, MATE1 (Homo sapiens, UniProt Q96FL8); assay: Transporter inhibition; assay type: in vitro ADME; conditions: read-out: as an Inhibitor, IC50
T2 construct: host or cells: MDCK
T2 sequence (Q96FL8 1-570): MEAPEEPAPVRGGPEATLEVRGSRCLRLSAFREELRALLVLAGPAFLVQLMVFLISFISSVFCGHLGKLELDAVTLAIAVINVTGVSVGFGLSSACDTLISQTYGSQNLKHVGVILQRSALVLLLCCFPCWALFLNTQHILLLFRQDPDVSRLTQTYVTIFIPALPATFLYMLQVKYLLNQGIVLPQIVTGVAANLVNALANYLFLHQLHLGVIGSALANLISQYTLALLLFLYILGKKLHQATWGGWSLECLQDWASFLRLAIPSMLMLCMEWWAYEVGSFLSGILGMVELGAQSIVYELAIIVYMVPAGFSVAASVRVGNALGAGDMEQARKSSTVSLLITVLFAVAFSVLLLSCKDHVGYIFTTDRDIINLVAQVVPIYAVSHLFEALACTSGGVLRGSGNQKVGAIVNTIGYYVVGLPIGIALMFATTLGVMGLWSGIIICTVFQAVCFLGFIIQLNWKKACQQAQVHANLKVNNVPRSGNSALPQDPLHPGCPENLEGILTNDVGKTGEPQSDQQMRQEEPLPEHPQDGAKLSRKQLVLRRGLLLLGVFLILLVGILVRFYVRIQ

[3] = Solubility in transport buffer; assay type: physicochemical; conditions: aqueous buffer, read-out: Soluble up to
CYP1A2 = assay: CYP mRNA induction in plated human hepatocytes (qPCR); conditions: for Apparent Emax: CYP1A2 mRNA, EBO 0.3–100 µM, M3 1–250 µM
Procedure: (§1) The induction potential of EBO and M3 on CYP1A2, CYP2B6, and 3A4 was evaluated by incubating the test articles with plated human hepatocytes from 3 individual donors (GKJ, ZEY, WKF) in triplicate according to WuXi AppTec (Cranbury, NJ, USA) SOP.
(§2) At the end of incubation, the RNA of human hepatocytes was isolated and the mRNA expression levels of CYP 1A2, 2B6, and 3A4 were evaluated by using real-time polymerase chain reaction (qPCR) after being reverse-transcribed (RT) to cDNA following manufacturer’s instruction (thermos Fisher Scientific (Waltham, MA, USA). On the last dosing day with EBO or M3, incubation samples were extracted in triplicate by the addition of ice-cold quench solutions at 0, 0.5, 1, 2, 4, 6, and 24 h after dosing and the extracted samples were analyzed using LC-MS/MS to determine the EBO or M3 concentration in each sample.

CYP2B6 = assay: as above; conditions: for Apparent Emax: CYP2B6 mRNA, EBO 0.3–100 µM, M3 1–250 µM
Procedure: as §1, §2

CYP3A4 = assay: as above; conditions: for Apparent Emax: EBO 0.3–100 µM, M3 1–250 µM; for EC50 at 2 days: human
Procedure: as §1, §2

[4] = cited from earlier work
[5] = at 100 µM, EBO 2 out of 3 donors, M3 1 out of 3 donors
[6] = EBO 500 mg PO q24h, healthy subjects, Study EBO-101, printed with "(unbound fraction)", read-out: Steady-state systemic total Cmax
[7] = human study of radiolabeled EBO

| Structure (SMILES) | Concentration in the receiver compartment (BCRP [1]) | as a Substrate (BCRP [1]) | IC50 (MATE1) [µM] | solubility ([3]; transport buffer pH 7.4) [µM] | solubility ([3]; transport buffer pH 8.5) [µM] | Apparent Emax (CYP1A2; donor one) [Fold] | Apparent Emax (CYP1A2; donor three) [Fold] | Apparent Emax (CYP1A2; donor two) [Fold] | Apparent Emax (CYP2B6; donor one) [Fold] | Apparent Emax (CYP2B6; donor three) [Fold] | Apparent Emax (CYP2B6; donor two) [Fold] | Apparent Emax (CYP3A4; CYP3A4 mRNA, donor one) [Fold] | Apparent Emax (CYP3A4; CYP3A4 mRNA, donor three) [Fold] | Apparent Emax (CYP3A4; CYP3A4 mRNA, donor two) [Fold] | CYP3A4 mRNA expression induction (CYP3A4; [5]) | Cmax [4, 6] [µM] | also measured |
| --- | --- | --- | --- | --- | --- | --- | --- | --- | --- | --- | --- | --- | --- | --- | --- | --- | --- |
| NC[C@H]1OB(O)c2c(OCCCO)cccc21 [EBO, Epetraborole] | below the lower limit of quantification | No | > 100 | 17000 (≈ 4030 µg/mL) | 100 (≈ 23.7 µg/mL) | <2 | <2 | <2 | <2 | <2 | >2.18 | >2.98 | <2 | >2.93 | ~ 3 fold | 12 | inhibition at 300 µM (BCRP [2]; human, BCRP-MDCK cells, pH 7.4, at 300 μM): 13%; inhibition at 1000 µM (BCRP [2]; human, BCRP-MDCK cells, pH 7.4, at 1000 µM): 27%; Inducer of CYP1A2 mRNA (in words) (CYP1A2; hepatocytes): not an inducer; CYP2B6 mRNA expression induction (CYP2B6; at 100 µM, 1 out of 3 donors): 2.18 fold; Inducer of CYP2B6 (in words) (CYP2B6; hepatocytes): weak inducer; EC50 at 2 days (CYP2B6; human, plated human hepatocytes): > 100 µM; Inducer of CYP3A4 (in words) (CYP3A4; hepatocytes): weak inducer; EC50 at 2 days (CYP3A4; plated human hepatocytes): > 100 µM; EC50 (CYP3A4; read-out: Apparent EC50, CYP3A4 mRNA, donor one): > 100 µM; Cmax ([4]; 500 mg/day PO human clinical dose): 2850 ng/mL |
| NC[C@H]1OB(O)c2c(OCCC(=O)O)cccc21 [M3] | below the lower limit of quantification | No | > 250 | 250 (≈ 62.8 µg/mL) | 250 (≈ 62.8 µg/mL) | <2 | <2 | <2 | <2 | <2 | <2 | 2.16 | <2 | <2 | 2.19 fold | 20 | inhibition at 500 µM (BCRP [2]; human, BCRP-MDCK cells, pH 7.4, at 500 μM): 44%; IC50 (BCRP [2]; read-out: as an Inhibitor, IC50): > 500 µM; CYP3A4 mRNA expression induction (CYP3A4; at 250 µM, 1 out of 3 donors): 2.13 fold; EC50 at 2 days (CYP3A4): 32.4 µM; Excretion (in words) [4, 7]: excreted predominantly in the urine; Further metabolism (in words) [4, 7]: not subject to further metabolism |
